Melting point data for 122 molecules are collected here from a melting point compilation (Tetko et al.).

`O=C(O)CN1C(=O)CCCc2ccccc21` came in with a melting point of 141 to 143 °C.

Molecule `Cc1ccc(-c2cnnc(N)n2)cc1` yielded a melting point of 277 to 279 °C. `CC(C)(C)OC(=O)Nc1ccc(CC(N)=S)cc1` displayed a melting point of 160 to 162 °C. In the case of `O=C(O)c1nnc2c(C(F)(F)F)cccn12`, the melting point is 139 to 141 °C. The molecule `CC(=O)c1cc(C(=O)O)n(C)c1` had a melting point of 177 to 181 °C.

For the molecule `CC(O)c1ccc(N(C)Cc2ccccn2)c(F)c1` (configuration not stated), the melting point lay within 73 to 75 °C. Take `CN(C)S(=O)(=O)c1ccc(I)c(C(=O)O)c1`: the melting point is 198 to 200 °C. The molecule `NC(=O)C1CNc2ccccc2N1` (configuration not stated) had a melting point of 99 to 101 °C. As for `Clc1cc2c(cc1Cl)OCO2`, the figure is 71 to 73 °C; as for `CNC(=O)COc1ccc(C(C)O)cc1` (configuration not stated), 84 to 86 °C; as for `O=C(O)c1cc(Cl)c2c(c1)OCCCO2`, 195 to 197 °C. `O=C(O)CN1CCOc2ccc(Cl)cc21` returned a melting point of 156 to 158 °C. For `O=C1OC(CBr)CN1c1ccccc1` (configuration not stated), the melting point was 102 to 104 °C. As for `O=C1C=C(Br)C(=O)N1`, the figure is 151 to 153 °C; as for `CC(C)(C)C(=O)Cn1cc(C(=O)O)nn1`, 198 to 200 °C; as for `Nc1cnn(Cc2ccc(Cl)cc2)c1`, 49 to 51 °C. Take `O=S(=O)(Cl)c1ccc(CCCl)cc1`: the melting point is 53 to 55 °C. The molecule `CC1CCc2sc(C(=O)NN)cc2C1` (configuration not stated) registered a melting point of 122 to 124 °C. In turn, `COc1ccc([N+](=O)[O-])cc1CN` yielded a melting point of 101 to 103 °C. In turn, `NC(=O)c1cnc(Cl)c(Cl)c1` came in with a melting point of 204 to 206 °C.

In the case of `Cc1ccc(C(=O)NN)c(O)c1`, the melting point lay within 173 to 175 °C.

`NC(=O)NCc1cccc(F)c1` displayed a melting point of 134 to 136 °C. For `Cc1ccc(-c2nc(N)sc2CC(=O)O)cc1C`, the melting point lay within 265 to 267 °C. In turn, `CC(=O)c1cccc(S(=O)(=O)NC(CC(N)=O)C(=O)O)c1` (configuration not stated) had a melting point of 191 to 193 °C. As for `O=C(O)Cn1ccc2ccccc21`, the figure is 169 to 171 °C; as for `O=C(O)CCc1cc(Cl)cs1`, 69 to 71 °C; as for `CCN(C)S(=O)(=O)c1c(C)n[nH]c1C`, 61 to 63 °C. As for `CN(C)CCCNC(N)=S`, the figure is 66 to 68 °C. As for `O=C(O)c1cc([N+](=O)[O-])cnc1Br`, the figure is 135 to 137 °C; as for `CC(C)(C)C1(C)OC(=O)CC(=O)O1`, 72 to 74 °C; as for `O=C(O)c1ccc(S(=O)(=O)NC2CCS(=O)(=O)C2)cc1` (configuration not stated), 303 to 305 °C. In the case of `N#CC(c1ccccc1)(c1ccc(F)cc1)c1ccc(F)cc1`, the melting point is 74 to 76 °C. As for `Cc1ccc(Oc2cc(C#N)ccn2)cc1C`, the figure is 63 to 65 °C; as for `O=C1CCc2cc(C(=O)c3ccccc3)ccc2N1`, 207 to 209 °C; as for `Nc1nc2cc(-c3ccccc3)cc(Cl)c2o1`, 237 to 239 °C. As for `O=S(=O)(Cl)c1cc(Br)ccc1Cl`, the figure is 64 to 66 °C; as for `CC1(O)CCC(N)CC1` (configuration not stated), 89 to 91 °C. As for `COC(=O)c1nc(Cc2ccccc2Cl)n2ccccc12`, the figure is 131 to 133 °C.

`Cc1cc(C(=O)O)nn1-c1ccc(F)cc1`: the melting point fell in the range of 152 to 154 °C.

The molecule `Cc1nc(CC(C)C)c(C(=O)O)s1` returned a melting point of 116 to 118 °C. As for `Cc1nc(COc2ccccc2/C=C/C(=O)O)cs1`, the figure is 143 to 145 °C; as for `COc1cccc(C(N)=NO)c1`, 103 to 105 °C. As for `O=Cc1sc(Nc2ccccc2)nc1Cl`, the figure is 164 to 166 °C; as for `CON(C)C(=O)Cc1ccc(Cl)cc1`, 45 to 47 °C. In turn, `Cc1nnnn1C(Cc1cccc(F)c1)C(=O)O` (configuration not stated) displayed a melting point of 158 to 160 °C. As for `Cc1nc(CN)oc1-c1ccc(Cl)cc1`, the figure is 69 to 71 °C. As for `CNCC1CCN(c2ccncc2)CC1`, the figure is 65 to 67 °C; as for `CCOc1cccc(C=O)c1OC(F)F`, 41 to 43 °C; as for `CC(=O)CC(=O)Nc1ccc(F)c(F)c1`, 92 to 94 °C.

`O=C1CCCc2[nH]c(=O)c(C(=O)O)cc21`: the melting point lay in the range of 289 to 291 °C. Regarding `N#CCCNC(=O)CCl`, the melting point fell in the range of 96 to 98 °C. For `CCS(=O)(=O)c1ccc(Cl)cc1C(=O)O`, the melting point fell in the range of 104 to 106 °C. With `Cc1ccc(C2CC2C(=O)O)cc1C` (configuration not stated), the melting point lay in the range of 97 to 99 °C.

With `Nc1cccc(Br)c1CO`, the melting point was 94 to 96 °C. As to `CN(C)Cc1ccc(C(=O)NN)o1`, the melting point was 116 to 118 °C. As for `O=C(O)c1ccc(NC(=O)C2CC2)s1`, the figure is 205 to 207 °C; as for `O=C1NCCNC1c1ccccc1` (configuration not stated), 139 to 141 °C. The molecule `COC(=O)c1cccc(OCC(F)(F)F)c1` displayed a melting point of 56 to 58 °C.

As for `NC(=C[N+](=O)[O-])N1CCOCC1`, the melting point fell in the range of 236 to 238 °C.

In turn, `COc1ccccc1-n1cc(S(=O)(=O)Cl)cn1` returned a melting point of 68 to 70 °C. As for `CCc1nc(N)no1`, the figure is 39 to 41 °C; as for `CN1CCCC[C@@H]1C(=O)O`, 219 to 221 °C.

The molecule `NC(=S)Nc1ccccc1Oc1ccccc1` displayed a melting point of 125 to 127 °C.

The molecule `NCC1(C(N)=O)CCCC1` registered a melting point of 61 to 63 °C.

On to `[N-]=[N+]=Nc1ccc(Br)cc1Cl`, for which the melting point lay within 60 to 62 °C. As to `O=C(O)c1cc(Cl)cc2cccnc12`, the melting point was 224 to 226 °C.

In turn, `COc1ccc(CCC(C)(N)C(=O)O)cc1` (configuration not stated) came in with a melting point of 303 to 305 °C. In turn, `Cc1ccc(F)c(C(=O)O)c1N` had a melting point of 139 to 141 °C. In turn, `Oc1ccc(Sc2ccncc2)cc1` had a melting point of 239 to 241 °C.

Molecule `Nc1cc(Cl)cc(Br)c1OC(F)F` returned a melting point of 86 to 88 °C. `Cc1sc(-n2c(C)ccc2C)c(C(=O)O)c1C` gave a melting point of 171 to 173 °C. Take `O=C(O)C1(c2cccc(Cl)c2)CCCC1`: the melting point lay in the range of 150 to 152 °C. `CC(C)n1ncc(C(N)=O)c1N`: the melting point lay within 194 to 196 °C. As for `CCOC(=O)C(=O)Nc1ccc([N+](=O)[O-])cc1`, the figure is 172 to 174 °C. `O=C(O)/C=C/c1cc(Cl)c2c(c1)OCO2`: the melting point was in the range of 259 to 261 °C. As for `CC(C)C(NS(=O)(=O)c1ccccc1F)C(=O)O` (configuration not stated), the figure is 159 to 161 °C; as for `N#Cc1ccccc1S(N)(=O)=O`, 306 to 308 °C; as for `CCC(CC)C(O)CN` (configuration not stated), 39 to 41 °C. `Cc1[nH]c2ccccc2c1C(=O)CBr` yielded a melting point of 203 to 205 °C. The molecule `Cc1nn(C)cc1CCC(=O)O` registered a melting point of 114 to 116 °C. Take `COc1cc(C)sc1C(=O)O`: the melting point was 159 to 161 °C. In the case of `NC(=O)c1ccccc1Oc1ncccc1C(=O)O`, the melting point lay in the range of 253 to 255 °C. As for `COc1nc(Cl)c(C=O)n1C`, the figure is 105 to 107 °C; as for `O=C(O)CCCN1C(=O)c2ccccc2C1=O`, 96 to 98 °C. As for `Cc1nn(Cc2ccc(Cl)cc2Cl)c(Cl)c1C(=O)O`, the figure is 227 to 229 °C; as for `Nc1nc(Cc2ccccc2)ns1`, 133 to 135 °C; as for `COC(=O)c1cc(Cl)ccc1S(=O)(=O)Cl`, 74 to 76 °C. As for `Nc1cc(Cl)c(I)cn1`, the figure is 99 to 101 °C; as for `COc1cc(N)c(C(N)=O)cc1OC`, 142 to 144 °C.

Molecule `CC(=O)c1ccc(S(=O)(=O)N2CCOCC2)cc1` displayed a melting point of 161 to 163 °C. As for `Cc1cccc(S(=O)(=O)Cl)c1C#N`, the figure is 74 to 76 °C; as for `Nc1nnc(Cc2ccc(F)cc2)o1`, 169 to 171 °C. Turning to `CC(=O)N(C)Cc1ccc(C(=O)CCl)cc1`, the melting point lay in the range of 45 to 47 °C.

As for `Nc1ccc2c(c1)S(=O)(=O)NC2=O`, the melting point was in the range of 279 to 281 °C. As to `Cn1cc(S(N)(=O)=O)c2ccccc21`, the melting point is 194 to 196 °C. As for `CN(C)S(=O)(=O)c1ccc(N2CCCCC2)c(C(=O)O)c1`, the figure is 135 to 137 °C; as for `O=C(O)Cc1ccc(NC(=O)c2cc3ccccc3o2)cc1`, 189 to 191 °C. `N=c1nc[nH]c2c1ncn2CCC(N)=O`: the melting point lay within 255 to 257 °C. Regarding `O=[N+]([O-])c1cc(Cl)ccc1S(=O)(=O)Cl`, the melting point is 74 to 76 °C. As for `CC(C)(C)NC(N)=S`, the figure is 171 to 175 °C; as for `CC(=O)NCCc1ccc(S(N)(=O)=O)s1`, 144 to 146 °C; as for `Cc1cc(O)n(C(C)(C)C)n1`, 125 to 127 °C.

In turn, `NC(=O)c1sc2ccccc2c1N` displayed a melting point of 217 to 219 °C.

Regarding `COc1ccc(S(N)(=O)=O)cc1NC(C)=O`, the melting point lay within 217 to 219 °C. Molecule `Cc1cccc(C)c1CC(=O)O` gave a melting point of 117 to 119 °C.

Molecule `O=C(O)c1cc(-c2ccc(-c3ccccc3)cc2)nc2ccccc12` came in with a melting point of 289 to 291 °C. As for `CC1Oc2ccccc2NC1=O` (configuration not stated), the figure is 142 to 144 °C; as for `CC(C)(Cc1ccccc1)C(=O)O`, 49 to 51 °C; as for `Cc1cc(C(=O)CCl)c(C)n1-c1cccc(F)c1`, 90 to 94 °C. Molecule `O=C(O)c1c(Cl)cccc1Oc1ccc(Cl)cc1` showed a melting point of 109 to 111 °C. As for `c1ccc(CNc2nccs2)cc1`, the figure is 127 to 129 °C. As for `C#CCOc1cccc(S(C)(=O)=O)c1`, the figure is 89 to 91 °C. As for `Cc1ccc(C(=O)Nc2cccc(C(F)(F)F)c2)cc1N`, the melting point is 109 to 111 °C. `Nc1onc(-c2ccco2)c1-c1ccc2c(c1)OCO2` displayed a melting point of 138 to 140 °C.

Consider `CS(=O)(=O)c1cc(Br)cc(C(=O)O)c1F`, for which the melting point was in the range of 209 to 211 °C.

For the molecule `Cc1cc(C(=O)O)c2cc(Br)ccc2n1`, the melting point lay within 259 to 261 °C. For `NC(=O)c1cccc(CO)c1`, the melting point lay within 113 to 115 °C. As for `CCOC(=O)c1sc(-c2cccc([N+](=O)[O-])c2)cc1N`, the figure is 166 to 168 °C. In turn, `CN(CC(=O)O)S(=O)(=O)c1ccc(Br)cc1` displayed a melting point of 179 to 181 °C. Take `COC(=O)c1csc(S(=O)(=O)Cl)c1`: the melting point was in the range of 54 to 56 °C. Molecule `NC(=O)C1CCN(c2ccc(N)cc2)CC1` gave a melting point of 205 to 207 °C. `CNC(=O)c1cc(Oc2cccc(O)c2C)ccn1` showed a melting point of 179 to 181 °C.
